The values that follow come from US12492181B2, “Gem-disubstituted piperidine melanocortin subtype-2 receptor (MC2R) antagonists and uses thereof” (Crinetics Pharmaceuticals, Inc., priority 2019, dated 2025).

Each structure is given as a SMILES string. pKi: −log10 of the molar value. Bounds are passed on as bounds.

T1 sequence (Q01718 whole entry): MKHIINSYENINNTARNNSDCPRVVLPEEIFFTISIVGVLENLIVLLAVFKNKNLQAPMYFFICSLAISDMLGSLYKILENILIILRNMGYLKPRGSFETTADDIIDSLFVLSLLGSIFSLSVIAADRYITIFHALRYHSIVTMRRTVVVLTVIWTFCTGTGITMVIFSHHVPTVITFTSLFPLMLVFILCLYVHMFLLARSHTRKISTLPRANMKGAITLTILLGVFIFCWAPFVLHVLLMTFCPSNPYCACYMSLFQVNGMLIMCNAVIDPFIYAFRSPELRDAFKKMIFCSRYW
T1 sequence (Q8TCY5 whole entry partner): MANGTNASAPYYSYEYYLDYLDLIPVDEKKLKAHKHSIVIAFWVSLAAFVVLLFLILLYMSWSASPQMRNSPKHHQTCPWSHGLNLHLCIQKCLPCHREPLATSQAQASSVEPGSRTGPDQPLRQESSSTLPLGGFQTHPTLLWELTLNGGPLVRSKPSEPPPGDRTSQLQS

This assay concerns the target T1, hMC2 receptor (crude hMC2R membranes from CRE-bla-CHO-K1 cells stably expressing hMC2 receptor and hMRAP accessory protein) (Homo sapiens, UniProt Q01718).
T1 construct: crude membrane fractions
Put plainly: hMC2 membrane binding assay ([125I]ACTH (1-39) Tyr23, SPA). To be noted: displacement of 0.2 nM [125I]ACTH (1-39) Tyr23 from hMC2R membranes, 1.5 hours at room temperature; read-out: MC2R binding potency. An outline of the steps: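 Ki values come from non-linear regression of SPA scintillation counts, with compounds displacing [125I]ACTH(1-39) Tyr23. Membranes come from CRE-bla-CHO-K1 cells stably expressing hMC2 receptor together with hMRAP. They are preincubated with WGA-coated PVT SPA beads in 50 mM HEPES pH 7.4 with 0.20% BSA, Mg2+, Ca2+ and protease inhibitors.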
`CCOc1ncccc1-c1ncc(C2(C(=O)N[C@@H]3CCN(C)C3)CCN(c3ccc(C(F)(F)F)cc3C#N)CC2)cc1F` [Compound 1-108, 1-[2-cyano-4-(trifluoromethyl)phenyl]-4-{2′-ethoxy-3-fluoro-[2,3′-bipyridin]-5-yl}-N-[(3R)-1-methylpyrrolidin-3-yl]piperidine-4-carboxamide]: the pKi was over 8.00.
Turning to `CCOc1ncccc1-c1ncc(C2(C(=O)NCCNC)CCN(c3ccc(C(F)(F)F)cc3F)CC2)cc1F` [Compound 1-287, 4-{2′-ethoxy-3-fluoro-[2,3′-bipyridin]-5-yl}-1-[2-fluoro-4-(trifluoromethyl)phenyl]-N-[2-(methylamino)ethyl]piperidine-4-carboxamide], the pKi is over 8.00.
In the case of `COc1ccccc1-c1ccc(C2(C(=O)NC[C@@H]3CCN3C)CCN(c3ccc(C(F)(F)F)cc3C#N)CC2)cn1` [Compound 1-217, 1-[2-cyano-4-(trifluoromethyl)phenyl]-4-[6-(2-methoxyphenyl)pyridine-3-yl]-N-{[(2S)-1-methylazetidin-2-yl]methyl}piperidine-4-carboxamide] it was over 8.00; in that of `CO[C@@H]1CN(C)C[C@@H]1NC(=O)C1(c2ccc(-c3cccn3C)nc2)CCN(c2ccc(C(F)(F)F)cc2C#N)CC1` (racemic) [Compound 1-267, rac-1-[2-cyano-4-(trifluoromethyl)phenyl]-N-[(3S,4R)-4-methoxy-1-methylpyrrolidin-3-yl]-4-[6-(1-methyl-1H-pyrrol-2-yl)pyridin-3-yl]piperidine-4-carboxamide], over 8.00.
In the case of `CCOc1ncccc1-c1ccc(C2(NC(=O)CCN)CCN(c3ccc(C(F)(F)F)cc3C#N)CC2)cc1` [Compound 2-3, 3-amino-N-{1-[2-cyano-4-(trifluoromethyl)phenyl]-4-[4-(2-ethoxypyridin-3-yl)phenyl]piperidin-4-yl}propanamide] it was 7.00 to 8.00; in that of `CCOc1ncccc1-c1ccc(C2(C(=O)NC3CN(C)C3)CCN(c3ccc(C(F)(F)F)cc3C#N)CC2)nn1` [Compound 1-140, 1-[2-cyano-4-(trifluoromethyl)phenyl]-4-[6-(2-ethoxypyridin-3-yl)pyridazin-3-yl]-N-(1-methylazetidin-3-yl)piperidine-4-carboxamide], over 8.00; in that of `COc1sccc1-c1ccc(C2(C(=O)N[C@H]3CCN(C)C3)CCN(c3ccc(C(F)(F)F)cc3C#N)CC2)cn1` [Compound 1-119, 1-[2-cyano-4-(trifluoromethyl)phenyl]-4-[6-(2-methoxythiophen-3-yl)pyridin-3-yl]-N-[(3S)-1-methylpyrrolidin-3-yl]piperidine-4-carboxamide], over 8.00.
For `CN1CC[C@@H](NC(=O)C2(c3ccc(-c4ccccc4C(F)(F)F)nc3)CCN(c3ccc(C(F)(F)F)cc3C#N)CC2)C1` [Compound 1-77, 1-[2-cyano-4-(trifluoromethyl)phenyl]-N-[(3R)-1-methylpyrrolidin-3-yl]-4-{6-[2-(trifluoromethyl)phenyl]pyridin-3-yl}piperidine-4-carboxamide] the value was over 8.00; for `CCOc1ncccc1-c1ccc(C2(C(=O)N[C@H]3CCN(C)C3)CCN(c3ncc(C(F)(F)F)cc3C#N)CC2)cn1` [Compound 1-42, 1-[3-cyano-5-(trifluoromethyl)pyridin-2-yl]-4-{2′-ethoxy-[2,3′-bipyridin]-5-yl}-N-[(3S)-1-methylpyrrolidin-3-yl]piperidine-4-carboxamide], over 8.00.
With `CCCOc1ccccc1-c1ccc(C2(C(=O)N[C@@H]3CCN(C)C3)CCN(c3ccc(C(F)(F)F)cc3C#N)CC2)cn1` [Compound 1-63, 1-[2-cyano-4-(trifluoromethyl)phenyl]-N-[(3R)-1-methylpyrrolidin-3-yl]-4-[6-(2-propoxyphenyl)pyridin-3-yl]piperidine-4-carboxamide], the pKi was over 8.00.
As to `COc1ccccc1-c1ccc(C2(C(=O)N[C@H]3CCN(C)C3)CCN(c3ccc(C(F)(F)F)cc3Cl)CC2)cn1` [Compound 1-144, 1-[2-chloro-4-(trifluoromethyl)phenyl]-4-[6-(2-methoxyphenyl)pyridin-3-yl]-N-[(3S)-1-methylpyrrolidin-3-yl]piperidine-4-carboxamide], the pKi is over 8.00.
For the compound `CCOc1ncccc1-c1ccc(C2(C(=O)N[C@@H]3CCN(C)C3)CCN(c3ccc(C(F)(F)F)cc3OC)CC2)cc1` [Compound 1-159, 4-[4-(2-ethoxypyridin-3-yl)phenyl]-1-[2-methoxy-4-(trifluoromethyl)phenyl]-N-[(3R)-1-methylpyrrolidin-3-yl]piperidine-4-carboxamide], the pKi is 7.00 to 8.00.
For `COc1ncccc1-c1ccc(C2(C(=O)N[C@@H]3CCN(C)C3)CCN(c3ccc(C(F)(F)F)cc3C#N)CC2)cn1` [Compound 1-98, 1-[2-cyano-4-(trifluoromethyl)phenyl]-4-{2′-methoxy-[2,3′-bipyridin]-5-yl}-N-[(3R)-1-methylpyrrolidin-3-yl]piperidine-4-carboxamide] the value was over 8.00; for `CN1CC[C@@H](NC(=O)C2(c3ccc(-c4cccc(F)c4F)nc3)CCN(c3ccc(C(F)(F)F)cc3C#N)CC2)C1` [Compound 1-61, 1-[2-cyano-4-(trifluoromethyl)phenyl]-4-[6-(2,3-difluorophenyl)pyridin-3-yl]-N-[(3R)-1-methylpyrrolidin-3-yl]piperidine-4-carboxamide], over 8.00.
Regarding `COc1ccccc1-c1ccc(C2(C(=O)N[C@H]3CCN(C)C3)CCN(c3ccc(Cl)cc3C#N)CC2)cn1` [Compound 1-91, 1-(4-chloro-2-cyanophenyl)-4-[6-(2-methoxyphenyl)pyridin-3-yl]-N-[(3S)-1-methylpyrrolidin-3-yl]piperidine-4-carboxamide], the pKi was over 8.00.
For `CCOc1ncccc1-c1ccc(C2(C(=O)N[C@@H](C)CNC)CCN(c3ccc(Cl)cc3Cl)CC2)cn1` [Compound 1-322, 1-(2,4-dichlorophenyl)-4-{2′-ethoxy-[2,3′-bipyridin]-5-yl}-N-[(2S)-1-(methylamino)propan-2-yl]piperidine-4-carboxamide] the value was over 8.00; for `CN1CC[C@@H](NC(=O)C2(c3ccc(-c4ccccc4OC(F)F)nc3)CCN(c3ccc(C(F)(F)F)cc3C#N)CC2)C1` [Compound 1-114, 1-[2-cyano-4-(trifluoromethyl)phenyl]-4-{6-[2-(difluoromethoxy)phenyl]pyridin-3-yl}-N-[(3R)-1-methylpyrrolidin-3-yl]piperidine-4-carboxamide], over 8.00.
For `CCOc1ncccc1-c1ccc(C2(OC(=O)NCCN(C)C)CCN(c3ccc(C(F)(F)F)cc3C#N)CC2)cc1` [Compound 2-2, 1-[2-cyano-4-(trifluoromethyl)phenyl]-4-[4-(2-ethoxypyridin-3-yl)phenyl]piperidin-4-yl N-[2-(dimethylamino)ethyl]carbamate] the value was 7.00 to 8.00.
In the case of `CN1CC[C@@H](NC(=O)C2(c3ccc(-c4cccnc4OC(F)F)nc3)CCN(c3ccc(C(F)(F)F)cc3C#N)CC2)C1` [Compound 1-85, 1-[2-cyano-4-(trifluoromethyl)phenyl]-4-[2′-(difluoromethoxy)-[2,3′-bipyridin]-5-yl]-N-[(3R)-1-methylpyrrolidin-3-yl]piperidine-4-carboxamide] it was over 8.00.
`COc1ncccc1-c1ccc(C2(C(=O)N[C@@H](C)CN(C)C)CCN(c3ccc(C(F)(F)F)cc3F)CC2)cn1` [Compound 1-295, N-[(2S)-1-(dimethylamino)propan-2-yl]-1-[2-fluoro-4-(trifluoromethyl)phenyl]-4-{2′-methoxy-[2,3′-bipyridin]-5-yl}piperidine-4-carboxamide]: the pKi is over 8.00.
As for `CCOc1ncccc1-c1ccc(C2(C(=O)NC[C@@H](CO)N(C)C)CCN(c3ccc(C(F)(F)F)cc3C#N)CC2)cn1` [Compound 1-48, 1-[2-cyano-4-(trifluoromethyl)phenyl]-N-[(2S)-2-(dimethylamino)-3-hydroxypropyl]-4-{2′-ethoxy-[2,3′-bipyridin]-5-yl}piperidine-4-carboxamide], the pKi is over 8.00.
As to `COc1ncccc1-c1ccc(C2(C(=O)N[C@H]3CCN(C)C3)CCN(c3ccc(C(F)(F)F)cc3C#N)CC2)cn1` [Compound 1-179, 1-[2-cyano-4-(trifluoromethyl)phenyl]-4-{2′-methoxy-[2,3′-bipyridin]-5-yl}-N-[(3S)-1-methylpyrrolidin-3-yl]piperidine-4-carboxamide], the pKi was over 8.00.
Take `CCOc1ncccc1-c1ccc(C2(C(=O)NCCN(C)C)CCN(c3ccc(C(F)(F)F)cc3F)CC2)nn1` [Compound 1-335, N-[2-(dimethylamino)ethyl]-4-[6-(2-ethoxypyridin-3-yl)pyridazin-3-yl]-1-[2-fluoro-4-(trifluoromethyl)phenyl]piperidine-4-carboxamide]: the pKi is over 8.00.
Consider `CN1C[C@@H](O)[C@H](NC(=O)C2(c3ccc(-c4cccn4C)nc3)CCN(c3ccc(C(F)(F)F)cc3C#N)CC2)C1` [Compound 1-269, 1-[2-cyano-4-(trifluoromethyl)phenyl]-N-[(3R,4R)-4-hydroxy-1-methylpyrrolidin-3-yl]-4-[6-(1-methyl-1H-pyrrol-2-yl)pyridin-3-yl]piperidine-4-carboxamide], for which the pKi was over 8.00.
Consider `CCOc1ncccc1-c1ccc(C2(C(=O)N[C@@H]3CCN(C)C3)CCN(c3ccc(C(F)(F)F)cc3C#N)CC2)nc1` [Compound 1-22, 1-[2-cyano-4-(trifluoromethyl)phenyl]-4-{2′-ethoxy-[3,3′-bipyridin]-6-yl}-N-[(3R)-1-methylpyrrolidin-3-yl]piperidine-4-carboxamide], for which the pKi was over 8.00.
For `CCOc1ccccc1-c1ccc(C2(NC(=O)[C@@H]3CCN(C)C3)CCN(c3ccc(C(F)(F)F)cc3C#N)CC2)cn1` [Compound 2-33, (3R)—N-{1-[2-cyano-4-(trifluoromethyl)phenyl]-4-[6-(2-ethoxyphenyl)pyridin-3-yl]piperidin-4-yl}-1-methylpyrrolidine-3-carboxamide], the pKi is over 8.00.
